The results in this text go back to paper PMC6315728, “Fatty Acid and Related Potassium Kv2 Channel Blockers: Toxicity and Physiological Actions on Mosquitoes” (Insects, 2018).

In the experiment the target is T1, AgKv2.1 (voltage-gated potassium channel Kv2.1) (Anopheles gambiae, UniProt Q5TT67).
T1 construct: gene 1274312
T1 sequence (Q5TT67 1-1014): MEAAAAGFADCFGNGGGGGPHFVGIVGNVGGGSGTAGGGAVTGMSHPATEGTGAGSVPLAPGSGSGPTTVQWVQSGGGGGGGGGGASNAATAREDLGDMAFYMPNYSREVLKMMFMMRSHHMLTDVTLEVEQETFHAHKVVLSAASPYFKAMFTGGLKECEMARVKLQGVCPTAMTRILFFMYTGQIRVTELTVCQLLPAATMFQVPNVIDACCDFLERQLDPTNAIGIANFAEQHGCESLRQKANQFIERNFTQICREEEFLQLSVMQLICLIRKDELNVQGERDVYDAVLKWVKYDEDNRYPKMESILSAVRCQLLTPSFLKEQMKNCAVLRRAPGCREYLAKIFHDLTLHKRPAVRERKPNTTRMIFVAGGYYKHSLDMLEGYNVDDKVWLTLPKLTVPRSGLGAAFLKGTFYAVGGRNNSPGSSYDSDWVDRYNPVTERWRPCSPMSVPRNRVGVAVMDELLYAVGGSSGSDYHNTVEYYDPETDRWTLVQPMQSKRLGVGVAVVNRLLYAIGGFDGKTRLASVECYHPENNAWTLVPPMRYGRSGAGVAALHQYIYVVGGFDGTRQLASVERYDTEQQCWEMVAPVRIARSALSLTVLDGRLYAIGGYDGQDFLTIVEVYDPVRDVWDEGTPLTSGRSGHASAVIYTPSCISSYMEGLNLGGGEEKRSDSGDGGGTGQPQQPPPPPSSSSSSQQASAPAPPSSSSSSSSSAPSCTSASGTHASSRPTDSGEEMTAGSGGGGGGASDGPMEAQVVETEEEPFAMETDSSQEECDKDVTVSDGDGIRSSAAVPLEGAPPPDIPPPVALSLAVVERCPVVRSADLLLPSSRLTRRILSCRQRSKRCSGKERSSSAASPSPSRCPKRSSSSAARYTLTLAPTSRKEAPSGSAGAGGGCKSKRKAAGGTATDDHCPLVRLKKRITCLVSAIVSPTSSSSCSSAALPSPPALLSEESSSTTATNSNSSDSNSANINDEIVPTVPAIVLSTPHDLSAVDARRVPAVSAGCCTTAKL
Description: whole-cell patch-clamp of HEK-293 cells expressing AgKv2.[…], current inhibition at +[…] mV. In kind it is cell-based. (In general: In patch-clamp work, channel activity is measured electrically.)

Like-named read-outs stand apart in the source and are kept apart here.

As for `CN(C)c1cccc2c(S(=O)(=O)NCCCCCCCCCCC(=O)O)cccc12` [DAUDA], under “read-out: Patch Clamp / IC50 /”, the IC50 turned out to be 1.18 µM.
Consider `CCCCCCCCCC(=O)O` [decanoic acid], for which the IC50 was found to be 0.61 µM.
As for `CCCCCC(O)CCCC(=O)O` (stereo not drawn) [5-HDC], the IC50 (read-out: Patch Clamp / IC50 /) was determined as 30 µM.
